Structures are written as SMILES. Changes are numbered by the printed parent chain.

The target of test [1] is T1, Androgen Receptor dual T878A/L702H mutant protein (Homo sapiens, UniProt P10275, L702H/T878A).
T1 construct: host or cells: MDA-PCa-2b
T1 sequence (P10275 1-920 L702H/T878A): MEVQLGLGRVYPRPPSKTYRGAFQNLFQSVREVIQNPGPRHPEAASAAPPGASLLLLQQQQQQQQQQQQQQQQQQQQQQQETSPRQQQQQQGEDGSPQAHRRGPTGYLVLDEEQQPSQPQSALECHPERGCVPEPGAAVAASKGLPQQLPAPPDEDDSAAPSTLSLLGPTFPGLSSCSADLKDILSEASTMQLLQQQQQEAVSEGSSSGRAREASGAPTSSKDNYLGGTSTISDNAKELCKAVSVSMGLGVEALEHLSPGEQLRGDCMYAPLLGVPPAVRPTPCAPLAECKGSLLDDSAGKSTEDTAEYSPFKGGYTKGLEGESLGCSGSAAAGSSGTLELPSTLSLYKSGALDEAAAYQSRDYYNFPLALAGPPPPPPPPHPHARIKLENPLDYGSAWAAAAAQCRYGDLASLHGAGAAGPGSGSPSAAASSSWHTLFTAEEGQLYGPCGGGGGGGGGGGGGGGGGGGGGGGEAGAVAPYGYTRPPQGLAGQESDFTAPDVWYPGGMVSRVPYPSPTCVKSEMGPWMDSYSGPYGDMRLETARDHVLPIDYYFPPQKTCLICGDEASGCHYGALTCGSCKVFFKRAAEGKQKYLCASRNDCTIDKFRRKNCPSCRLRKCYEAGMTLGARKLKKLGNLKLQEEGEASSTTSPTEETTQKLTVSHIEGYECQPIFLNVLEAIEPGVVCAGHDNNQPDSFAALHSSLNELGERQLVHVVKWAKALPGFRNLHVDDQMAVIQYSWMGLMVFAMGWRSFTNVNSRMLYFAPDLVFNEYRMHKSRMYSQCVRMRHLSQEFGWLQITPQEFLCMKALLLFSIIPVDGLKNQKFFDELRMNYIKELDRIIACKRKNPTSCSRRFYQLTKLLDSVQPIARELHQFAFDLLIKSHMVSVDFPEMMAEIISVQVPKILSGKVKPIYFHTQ
The experiment in a line: Dual Mutant (T878A/L702H) Androgen Receptor Degradation Assay (HTRF, MDA-PCa-2b cells). Type of test: cell-based. The note with it: 18 h, 18 h incubation, read-out: mean asymptote max. The protocol:
Degradation of Androgen Receptor dual T878A/L702H mutant protein in human MDA-PCa-2b (ATCC) cells treated with PROTACs was quantified using the HTRF Human Androgen Receptor Detection Kit (PerkinElmer) in 384 well assay plate format. 10 mM DMSO (Sigma-Aldrich) stock solutions of PROTACs were prepared and diluted across an 11 concentration, 3-fold increment range, and 25 nL dispensed into a white opaque bottomed 384 well assay plate (Thermofisher) using an acoustic ECHO dispenser (Labcyte). Cells were cultured in growth medium (BRFF—HPC-1 (Athena ES) supplemented with 20% FBS (Gibco), penicillin 50U/mL and streptomycin 50 μg/mL (Gibco, #15140-122)) in collagen I or poly-D-lysine coated T175 flasks (Corning, #356487 or #356539, respectively). For the assay, cells were harvested from the flask, centrifuged at 200 g for 5 min and then resuspended in the growth medium. 25 μl of cell suspension containing 10,000 cells was dispensed into each well of the assay plate containing the test compounds, which was then incubated for 18 h at 37° C./5% CO2. Control wells were included on each assay plate, with assay medium without cells being the no AR remaining 100% effect control, and cells treated with DMSO vehicle only, without PROTAC, the 0% effect control. After 18 h incubation 8 μl of supplemented lysis buffer from HTRF kit was added to each well and the plate shaken at 500 rpm for 1 h at room temperature. 8 μl of antibody mix in Detection buffer from HTRF kit was added to each well and the plate was incubated for 2 h in dark at mom temperature. The fluorescence was measured at both 620 nm and 665 nm using an excitation wavelength of 337 nm with a PHERAstar microplate reader (BMG Labtech) and the % AR protein remaining in each well was calculated by normalising the HTRF ratio (665 nm signal/620 nm signal) value to the control wells mentioned above. Parameters corresponding to the potency and efficacy estimates of the PROTACs were obtained from these normalised values using curve fitting software (IDBS ActivityBase). These included the DC50 and the Dmax estimates. Two versions of the DC50, called relative DC50 and absolute DC50, were typically generated. These are the inflection point of a fitted 4 parameter sigmoidal response curve and the interpolated concentration of PROTAC corresponding to 50% of the protein being degraded, respectively. The Dmax parameter was the maximum experimentally observed degradation and the asymptote max parameter the fitted response curve asymptote maximum.
In general terms: TR-FRET usually uses a lanthanide donor and a delayed reading to cut background.

Test [2] deals with T2, Androgen Receptor protein in human LnCaP cells (Homo sapiens, UniProt P10275, T878A).
T2 construct: the AR gene was modified, using CRISPR/Cas9 editing, so the expressed AR protein included an 11 amino acid HiBiT tag; endogenous in cells; host or cells: clonal LnCaP derived cell line, endogenous AR gene edited by CRISPR/Cas9
T2 sequence (P10275 1-920 T878A): T1 sequence (P10275 1-920 L702H/T878A) with H702L
The experiment in a line: Androgen Receptor Degradation Assay (Nano-Glo HiBiT, LnCaP cells). In kind it is cell-based. Particulars: 18 h, HiBiT-tagged AR LnCaP cells, 18 h incubation, fitted curve asymptote maximum of degradation, read-out: mean asymptote max. The protocol: Degradation of Androgen Receptor protein in human LnCaP cells treated with PROTACs was quantified using the Nano-Glo® HiBiT Lytic Detection System (Promega) in 384 well assay plate format. A clonal LnCaP derived cell line was first established in which the AR gene was modified, using CRISPR/Cas9 editing, so the expressed AR protein included an 11 amino acid HiBiT tag at its amino-terminus. 10 mM DMSO stock solutions of PROTACs were prepared and diluted across an 11 concentration, 3 fold increment range, and 25 nL dispensed into a white opaque bottomed 384 well assay plate (Thermofisher) using an acoustic ECHO dispenser (Labcyte). Cells were grown in cell culture medium (RPMI 1640 supplemented with 15% FBS, penicillin 50U/mL and streptomycin 50 ug/mL (Thermofisher)). For the assay, cells were detached from flask and resuspended with assay medium (FluoroBrite™ DMEM supplemented with 10% heat inactivated FBS, penicillin 50U/mL and streptomycin 50 ug/mL (Thermofisher)). The cell suspension was centrifuged at 400 g for 5 min and the pellet resuspended in assay medium. 25 μL of cell suspension containing 10,000 cells was dispensed into each well of the assay plate containing a serial dilution of test compounds, which was then incubated for 18 h at 37° C./5% CO2. Control wells were included on each assay plate, with assay medium without cells being the no AR remaining 100% effect control, and cells treated with DMSO vehicle only, without PROTAC, the 0% effect control. 25 μL of Nano-Glo® HiBiT lysis buffer supplemented with LgBiT protein and Nano-Glo® substrate (Promega) was added to each well and the plate shaken at 500 rpm for 10 min at room temperature. The intensity of luminescence was measured using a PHERAstar microplate reader (BMG Labtech) and the % AR protein remaining in each well calculated by normalising the raw luminescence value to the above control wells. Parameters corresponding to the potency and efficacy estimates of the PROTACs were obtained from these normalised luminescence values using software (IDBS ActivityBase). These included the DC50 (concentration at which 50% of protein was degraded in M) and the Dmax (maximal degradation, in %) estimates. Two versions of the DC50, called relative DC50 and absolute DC50, were generated. These are the inflection point of a fitted 4 parameter sigmoidal response curve and the interpolated concentration of PROTAC corresponding to 50% of the protein being degraded, respectively. The corresponding pDC50 is reported as −log10(relative […]). The Dmax parameter was the maximum experimentally observed degradation and the asymptote max parameter the fitted response curve asymptote maximum.
On the technique in general: The HiBiT peptide binds its large partner to form an active luciferase.

Regarding `COc1cc(O[C@H]2C(C)(C)[C@H](NC(=O)c3ccc(N4CCC(CN5CCC(n6ncc7c(N8CCC(=O)NC8=O)c(F)ccc76)CC5)CC4)c(F)c3)C2(C)C)ccc1C#N` [Example 25, N-((1r,3r)-3-(4-Cyano-3-methoxyphenoxy)-2,2,4,4-tetramethylcyclobutyl)-4-(4-((4-(4-(2,4-dioxotetrahydropyrimidin-1(2H)-yl)-5-fluoro-1H-indazol-1-yl)piperidin-1-yl)methyl)piperidin-1-yl)-3-fluorobenzamide], in test [1], the Dmax is at least 50%.
Same read-out and setting: under `COc1cc(O[C@H]2C(C)(C)[C@H](NC(=O)c3ccc(N4CCC(CN5CCC(n6ncc7c(N8CCC(=O)NC8=O)cc(F)cc76)CC5)CC4)c(F)c3)C2(C)C)ccc1C#N` [Example 24, N-((1r,3r)-3-(4-Cyano-3-methoxyphenoxy)-2,2,4,4-tetramethylcyclobutyl)-4-(4-((4-(4-(2,4-dioxotetrahydropyrimidin-1(2H)-yl)-6-fluoro-1H-indazol-1-yl)piperidin-1-yl)methyl)piperidin-1-yl)-3-fluorobenzamide] stands at least 50%; under `CC1(C)[C@H](NC(=O)c2ccc(N3CCC(CN4CC[C@H](n5ncc6c(N7CCC(=O)NC7=O)cccc65)[C@H](F)C4)CC3)c(F)c2)C(C)(C)[C@H]1Oc1ccc(C#N)c(Cl)c1` [Example 14, N-((1r,3r)-3-(3-Chloro-4-cyanophenoxy)-2,2,4,4-tetramethylcyclobutyl)-4-(4-(((3R,4S)-4-(4-(2,4-dioxotetrahydropyrimidin-1(2H)-yl)-1H-indazol-1-yl)-3-fluoropiperidin-1-yl)methyl)piperidin-1-yl)-3-fluorobenzamide], at least 50%.
In the case of `COc1cc(O[C@H]2C(C)(C)[C@H](NC(=O)c3ccc(N4CCC(CN5CCC(n6ncc7c(N8CCC(=O)NC8=O)ccnc76)CC5)CC4)c(F)c3)C2(C)C)ccc1C#N` [Example 19, N-((1r,3r)-3-(4-Cyano-3-methoxyphenoxy)-2,2,4,4-tetramethylcyclobutyl)-4-(4-((4-(4-(2,4-dioxotetrahydropyrimidin-1(2H)-yl)-1H-pyrazolo[3,4-b]pyridin-1-yl)piperidin-1-yl)methyl)piperidin-1-yl)-3-fluorobenzamide], the Dmax in test [2] is at least 50%.
For `Cc1ccc2c(O[C@H]3C(C)(C)[C@H](NC(=O)c4ccc(N5CCC(CN6CCC(n7ncc8c(N9CCC(=O)NC9=O)cccc87)CC6)CC5)c(F)c4)C3(C)C)ccc(C#N)c2n1` [Example 7, N-((1r,3r)-3-((8-cyano-2-methylquinolin-5-yl)oxy)-2,2,4,4-tetramethylcyclobutyl)-4-(4-((4-(4-(2,4-dioxotetrahydropyrimidin-1(2H)-yl)-1H-indazol-1-yl)piperidin-1-yl)methyl)piperidin-1-yl)-3-fluorobenzamide], the Dmax in test [1] was at least 50%.

These data come from US12577231B2, “Androgen receptor PROTACS” (GlaxoSmithKline Intellectual Property Development Limited, priority 2023, dated 2026).
